{"source": "patent US12036229B2", "about": "“Use of phosphorylated heptose compounds” (NATIONAL RESEARCH COUNCIL OF CANADA, priority 2017, dated 2024)", "test_system": "CT26 cells (colon carcinoma from BALB/c mice)", "assay": "CT26 tumour model in BALB/c mice", "format": "in vivo", "settings": "intraperitoneal; HMP 200 μg per day D10, D11, D12; LPS 1x at 3 mg/kg; 11 day period, vs PBS; FIG. 14c"}
{"substance": "lipopolysaccharide [LPS]", "values": [{"measurement": "change in tumour volume relative to day 10 (rate of tumour growth)", "value": "significantly reduced the rate of tumour growth"}]}
